“And” between values parts separate entries of the source, which are not always exact repeats. Equal entries are not always repeated. Where two headings read alike, the source gives them in different places.
Assays:
[1] = Drug concentration in monkey brain and plasma after daily oral administration for 91 days; assay type: in vivo, cynomolgus monkeys; settings: 10 mg/kg oral once a day for 91 days; for Kp at 24 h / concentration at 24 h: female, cynomolgus monkey, 10 mg/kg; for Kp at 24 h: brain (left forebrain) / plasma, po; for concentration at 24 h: oral
Description: Compound of formula (I) was orally given to 3 female cynomolgus monkeys by gavage once a day for 91 days. The volume of administration was 5 mL/kg, and the vehicle was an aqueous solution of 0.5% (w/v) methylcellulose (cps 400) and 1% (w/v) Tween 80. The Compound of formula (I) dose was 10 mg/kg; this dose level was assessed in this study to be the […] no adverse effect level (NOAEL) based on general toxicology evaluation. The animals were necropsied 24 hours after the last dose after an overnight period without food. A sample from brain tissue (left forebrain) was collected from each animal, snap frozen in liquid nitrogen. and stored frozen at <−50° C. Blood samples were taken from the femoral vein into tubes containing K2EDTA, fully inverted approximately 10 times, and placed on crushed wet ice until centrifugation at 2300 g for 10 minutes at approximately 4° C. The resultant plasma was separated, transferred into polypropylene tubes, and frozen at <−50° C. Tissue and plasma samples were transported frozen on dry ice to the respective sites of analysis.
The monkey plasma samples were analyzed for their contents in Compound of formula (I) and N^32-desmethyl-Compound of formula (I) as follows. The plasma samples were fortified in human K2-EDTA plasma (1:9 monkey:human volume ratio) prior to extraction. All solution preparations and dilutions were conducted under sodium vapor light and in “low-binding” quality polypropylene tubes and deep-well plates. The analytes and internal standards (^13CD6-Compound of formula (I) and D7-N^32-desmethyl-Compound of formula (I)) were extracted by protein precipitation with 5M aqueous urea (40 μL for 50 μL plasma), and then analyzed by LC-MS/MS. Chromatographic separation was achieved on an Synergi Polar-RP, 80A, 4 μm 75×2.00 mm column (Phenomenex) with gradient elution using a mixture of 0.1% formic acid in water as eluent A and 0.1% formic acid in acetonitrile as eluent B (5% B from 0 to 0.50 min, 42% B at 4.5 min, 95% B from 4.60 min to 5.50 min, 5% B at 5.60 min, 100% B at 5.70 min, 5% B at 6.40 min, 100% B at 6.50 min, 5% B at 7.00 min; 800 μl/min, 70° C.). Detection was accomplished with a AB Sciex 6500+ mass spectrometer utilizing electrospray MS/MS in positive ion multiple reaction monitoring mode (MRM). The lower limits of quantification for Compound of formula (I) and N^32-desmethyl-Compound of formula (I) were 5.00 ng/mL and 2.50 ng/mL, respectively.
The monkey brain tissue samples were analyzed for their contents in Compound of formula (I) and N^32-desmethyl-Compound of formula (I) as follows. Tissue samples were homogenized in human plasma (1 mg tissue for 10 μL plasma) at +4° C. using a Precelly Evolution system. The analytes (Compound of formula (I) and N^32-desmethyl-Compound of formula (I)) were extracted by protein precipitation with methanol/acetonitrile (9:1, v:v) containing the internal standards (^13CD6-Compound of formula (I) and D7-N^32-desmethyl-Compound of formula (I)) and then analyzed by UHPLC-MS/MS. Chromatographic separation was achieved on a HSS T3 1.8 μm, 2.1×100 mme column (Waters) with gradient elution using a mixture of 0.1% formic acid in water as eluent A, and 0.1% formic acid in acetonitrile as eluent B (20% B from 0 to 0.50 min, 90% B from 1.80 min to 2.30 min, 20% B at 2.60 min; 0.6 mL/min, room temperature). Detection was accomplished with Xevo TQ-S mass spectrometer (Waters) utilizing electrospray MS/MS in positive ion multiple reaction monitoring mode (MRM). The lower limits of quantification for Compound of formula (I) and N^32-desmethyl-Compound of formula (I) were 55.00 ng/g tissue and 22.00 ng/g tissue, respectively.

LN18 GBM cell line = experiment: Colony formation with radiotherapy, LN18; assay type: cell-based; settings: 0.1 μM to 5.0 μM, irradiated at 1, 2 and 4 Gy, p<0.0001
Description: GBM tumor cells (T98G, LN18, SNB-19 and U251) were grown as an adherent monolayer at 37° C. in a humidified atmosphere (5% CO2, 95% air). For experimental use, tumor cells were detached from culture flasks by a 5-minute treatment with trypsin-versene, in Hanks' medium without calcium or magnesium and neutralized by addition of complete culture medium. Cells were counted and viability assessed using a 0.25% trypan blue exclusion assay. All cell lines were appropriately seeded following the conditions for monolayer colony formation in 6-well plates (Ref #152795, Nunc, Dutscher) in 1.9 ml of cell culture medium, at 3 densities for evaluation of a proclonogenic effect. […]
Treatments were performed at 24 hours (D1) after seeding by addition of ×20 concentrated compound or vehicle solutions, to obtain final concentrations of 0.1 μM to 5.0 μM of Compound of formula (I) [referred to as CoF (I) in FIG. 3]. […] After 14 days of incubation, colonies were counted after being stained through incubation with 500 μl of a solution of water containing 0.05% (w/v) of methylene blue (Ref. M4159, Sigma) for 2 hours. Colonies were counted using a colony counter pen (Ref #045855, Dutscher, Brumath, France). The Surviving Fraction was calculated for each condition using the equations described below and plotted on a semi-logarithmic graph using the Linear-Quadratic model. […]

With Cc1cc(Nc2ncc3c(n2)N(C)CN(c2c(Cl)cccc2Cl)C3=O)ccc1C1CCN(C)CC1 [Compound of formula (I)] the “Brain:plasma concentration ratio, at 24 h post last dose” value ([1]; individual animals) was 4.18 and 4.57, the “Plasma concentration at 24 h post last dose” value ([1]; individual animals) was 0.929 µg/mL and 0.632 µg/mL and the “Brain concentration at 24 h post last dose” value ([1]; left forebrain, individual animals) was 3885 ng/g tissue and 2886 ng/g tissue. The Kp at 24 h ([1]; individual animals, read-out: Brain:plasma concentration ratio, at 24 h post last dose) was 4.2, the Kp at 24 h ([1]; read-out: Mean brain:plasma ratio (±SD), at 24 h post last dose (n = 3)) was 4.32 ± 0.22 and the concentration at 24 h ([1]; brain (left forebrain), left forebrain, individual animals, read-out: Brain concentration at 24 h post last dose) was 4790 ng/g. For the same compound, the concentration at 24 h ([1]; plasma, individual animals, read-out: Plasma concentration at 24 h post last dose) was 1.14 µg/mL and the “Effect on radiotherapy (surviving fraction, colony formation)” value (LN18 GBM cell line) was “significantly increased effect of radiotherapy”.

— US20260256790A1, “DEBIO-0123 IN COMBINATION WITH TEMOZOLOMIDE AND RADIOTHERAPY FOR USE IN TREATING GLIOMA” (Debiopharm International S.A., priority 2023, published 2026)
